Data: ChEMBL document CHEMBL1201862, “PubChem BioAssay data set” (2004)
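Grown in 96-well plates, cells were treated for 48 hours with each compound at five concentrations. Insufficient inhibition: endpoint recorded as highest concentration tested. Abbreviation: GI50, concentration required for 50% inhibition of growth.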 The source made the active and inactive calls. Rule as the data show it: active = GI50 up to about 1.1 µM and inactive = higher.

Key:
Experiment in all cases: NCI tumour cell line growth inhibition, 48 h
DU-145 = tested on: DU-145
SW-620 = tested on: SW-620
SF-295 = tested on: SF-295
ACHN = tested on: ACHN
K562 = tested on: K562
T47D = tested on: T47D
NCI-H460 = tested on: NCI-H460
SK-MEL-28 = tested on: SK-MEL-28
786-0 = tested on: 786-0
UO-31 = tested on: UO-31
RXF 393 = tested on: RXF 393
SNB-19 = tested on: SNB-19
NCI-H226 = tested on: NCI-H226
Malme-3M = tested on: Malme-3M
EKVX = tested on: EKVX
NCI/ADR-RES = tested on: NCI/ADR-RES
MCF7 = tested on: MCF7
HCC 2998 = tested on: HCC 2998
SK-OV-3 = tested on: SK-OV-3
M14 = tested on: M14
HCT-116 = tested on: HCT-116
HCT-15 = tested on: HCT-15
HT-29 = tested on: HT-29
NCI-H23 = tested on: NCI-H23
SR = tested on: SR
MOLT-4 = tested on: MOLT-4
Hs-578T = tested on: Hs-578T
OVCAR-5 = tested on: OVCAR-5
A498 = tested on: A498
OVCAR-3 = tested on: OVCAR-3
A549 = tested on: A549
HL-60 = tested on: HL-60
UACC-257 = tested on: UACC-257
U-251 = tested on: U-251
MDA-N = tested on: MDA-N
NCI-H522 = tested on: NCI-H522
HOP-62 = tested on: HOP-62
CAKI-1 = tested on: CAKI-1
CCRF-CEM = tested on: CCRF-CEM
SF-539 = tested on: SF-539
MDA-MB-435 = tested on: MDA-MB-435
SK-MEL-5 = tested on: SK-MEL-5
SN12C = tested on: SN12C
RPMI-8226 = tested on: RPMI-8226
IGROV-1 = tested on: IGROV-1
SK-MEL-2 = tested on: SK-MEL-2
OVCAR-4 = tested on: OVCAR-4
TK-10 = tested on: TK-10
UACC-62 = tested on: UACC-62
PC-3 = tested on: PC-3
LOX IMVI = tested on: LOX IMVI
COLO 205 = tested on: COLO 205
KM12 = tested on: KM12
SF-268 = tested on: SF-268
MDA-MB-231 = tested on: MDA-MB-231
SNB-75 = tested on: SNB-75
HOP-92 = tested on: HOP-92
OVCAR-8 = tested on: OVCAR-8

Measured: GI50

COc1ccc(/C=C/c2ccnc3ccccc23)cc1OC
active: UO-31 0.186 µM
inactive: DU-145 13.7 µM | SW-620 15.7 µM | SF-295 13.8 µM | ACHN 24.2 µM | K562 9.79 µM | T47D 11.7 µM | NCI-H460 15.2 µM | SK-MEL-28 17.5 µM | 786-0 44.3 µM | RXF 393 13.1 µM | SNB-19 17.4 µM | NCI-H226 22.9 µM | Malme-3M 16.9 µM | EKVX 14.6 µM | NCI/ADR-RES 14 µM | MCF7 6.82 µM | HCC 2998 39 µM | SK-OV-3 27.7 µM | M14 20 µM | HCT-116 12.6 µM | HT-29 12.4 µM | NCI-H23 14.9 µM | SR 25.5 µM | MOLT-4 19.1 µM | Hs-578T 18.1 µM | OVCAR-5 12.9 µM | A498 11.5 µM | OVCAR-3 12.5 µM | A549 15.1 µM | HL-60 11.3 µM | UACC-257 21.2 µM | U-251 46.9 µM | MDA-N 14.1 µM | NCI-H522 5.65 µM | HOP-62 15.1 µM | CAKI-1 15.8 µM | CCRF-CEM 13.2 µM | SF-539 15.8 µM | MDA-MB-435 15.1 µM | SK-MEL-5 14.8 µM | SN12C 17.9 µM | RPMI-8226 28.1 µM | IGROV-1 15.5 µM | SK-MEL-2 19.4 µM | OVCAR-4 12.3 µM | TK-10 15.6 µM | UACC-62 14.9 µM | PC-3 15.8 µM | LOX IMVI 10 µM | COLO 205 12.6 µM | KM12 14.7 µM | SF-268 14 µM
15.2 µM: HCT-15

COc1ccc(/C=C2\NC(=S)N(CN3CCOCC3)C2=O)cc1
inactive: DU-145 > 100 µM | SW-620 > 100 µM | MDA-MB-231 > 100 µM | SF-295 > 100 µM | ACHN > 100 µM | K562 > 100 µM | SNB-75 > 100 µM | SK-MEL-28 > 100 µM | 786-0 > 100 µM | UO-31 > 100 µM | SNB-19 > 100 µM | NCI-H226 > 100 µM | Malme-3M > 100 µM | EKVX > 100 µM | NCI/ADR-RES > 100 µM | MCF7 > 100 µM | SK-OV-3 > 100 µM | M14 > 100 µM | HCT-116 > 100 µM | HT-29 > 100 µM | NCI-H23 > 100 µM | SR > 100 µM | MOLT-4 > 100 µM | Hs-578T > 100 µM | HOP-92 > 100 µM | OVCAR-5 > 100 µM | A498 26.1 µM | OVCAR-3 > 100 µM | A549 > 100 µM | UACC-257 > 100 µM | U-251 > 100 µM | MDA-N > 100 µM | HOP-62 > 100 µM | CCRF-CEM > 100 µM | MDA-MB-435 > 100 µM | SK-MEL-5 > 100 µM | SN12C > 100 µM | RPMI-8226 > 100 µM | IGROV-1 > 100 µM | SK-MEL-2 > 100 µM | OVCAR-4 > 100 µM | TK-10 > 100 µM | UACC-62 > 100 µM | PC-3 > 100 µM | LOX IMVI > 100 µM | OVCAR-8 > 100 µM | COLO 205 > 100 µM | KM12 > 100 µM | SF-268 > 100 µM
> 100 µM: HCT-15

CCN(CC)C(=S)SS(=O)(=O)c1ccc(N)cc1
inactive: ACHN > 78.3 µM | K562 39.5 µM | T47D 76.7 µM | NCI-H460 87.1 µM | UO-31 > 89.5 µM | RXF 393 31.8 µM | SNB-19 > 100 µM | EKVX > 100 µM | MCF7 7.29 µM | HCC 2998 > 29.1 µM | SK-OV-3 > 100 µM | M14 70 µM | HT-29 > 100 µM | NCI-H23 > 100 µM | SR 3.41 µM | MOLT-4 2.3 µM | Hs-578T > 91 µM | HOP-92 > 23.1 µM | OVCAR-5 > 100 µM | A498 > 40.2 µM | A549 14.5 µM | MDA-N 70.5 µM | NCI-H522 3.68 µM | HOP-62 > 58.2 µM | CAKI-1 > 46.9 µM | SK-MEL-5 15.2 µM | RPMI-8226 22.8 µM | IGROV-1 4.91 µM | SK-MEL-2 > 100 µM | UACC-62 39.4 µM | KM12 29.6 µM
